Measurements as given in the CheMixHub viscosity set.
Where “and” joins values, the source holds several entries; their conditions need not be identical. Equal entries are not always repeated.

Test: xn = mol fraction of the nth substance listed

CCOCCOCC + COCCOCCOCCO
viscosity [mPa·s], 101.33 kPa
Conditions	298.15 K	308.15 K
x2 = 0.0126	0.622	0.539
x2 = 0.0328	0.652	0.561
x2 = 0.052	0.688	0.586
x2 = 0.0807	0.73	0.617
x2 = 0.1339	0.824	0.691
x2 = 0.1806	0.917	0.765
x2 = 0.2394	1.047	0.872
x2 = 0.2918	1.18	0.978
x2 = 0.342	1.332	1.097
x2 = 0.385	1.473	1.198
x2 = 0.4103	1.588	1.262
x2 = 0.4604	1.801	1.417
x2 = 0.5091	2.04	1.573
x2 = 0.5505	2.273	1.725
x2 = 0.5978	2.561	1.923
x2 = 0.6522	2.935	2.167
x2 = 0.7117	3.396	2.476
x2 = 0.7976	4.169	2.989
x2 = 0.8577	4.791	3.415
x2 = 0.9256	5.588	3.957
x2 = 0.9633	6.103	4.311

ClC(Cl)Cl + CS(C)=O
viscosity [mPa·s], 101.33 kPa
Conditions	x2 = 0.0955	x2 = 0.2039	x2 = 0.3021	x2 = 0.4068	x2 = 0.5023	x2 = 0.6044	x2 = 0.7038	x2 = 0.8047	x2 = 0.9014
298.15 K	0.642	0.839	1.018	1.227	1.365	1.498	1.611	1.729	1.842
308.15 K	0.576	0.738	0.882	1.057	1.171	1.276	1.366	1.458	1.545
318.15 K	0.527	0.682	0.8	0.915	1.011	1.097	1.171	1.246	1.309

O=CC(Cl)(Cl)Cl + C[N+](=O)[O-]
viscosity [mPa·s], 101.33 kPa
Conditions	x1 = 0.1002	x1 = 0.2003	x1 = 0.2963	x1 = 0.4004	x1 = 0.4966	x1 = 0.5833	x1 = 0.6948	x1 = 0.8007	x1 = 0.8965
298.15 K	0.661	0.7023	0.7591	0.8043	0.8435	0.8874	0.9389	0.9876	1.028
323.15 K	0.5186	0.5507	0.5793	0.6238	0.6316	0.6661	0.6895	0.7155	0.7491

O=C(O)CCl + C[N+](C)(C)CCO.[Cl-]
101 kPa, x2 = 0.333
Conditions	viscosity [mPa·s]
293.15 K	161
298.15 K	117.9
303.15 K	88.59
308.15 K	68.11
313.15 K	53.44
318.15 K	42.65
323.15 K	34.65

CC(=O)OCc1ccccc1 + Cc1ccc(C)cc1
viscosity [mPa·s], 101 kPa
Conditions	x1 = 0.0917	x1 = 0.1773	x1 = 0.2764	x1 = 0.3701	x1 = 0.4679	x1 = 0.5689	x1 = 0.6717	x1 = 0.7678	x1 = 0.8698	x1 = 0.9473
303.15 K	0.602	0.645	0.716	0.792	0.891	1.005	1.134	1.267	1.421	1.549
313.15 K	0.537	0.571	0.624	0.681	0.76	0.85	0.937	1.036	1.179	1.273

ClC(Cl)Cl + Cc1ccc(C)cc1
298.15 K, 101 kPa
Conditions	viscosity [mPa·s]
x1 = 0.4429	0.6167
x1 = 0.5074	0.6102
x1 = 0.5571	0.6084
x1 = 0.5997	0.6031
x1 = 0.6505	0.6003
x1 = 0.6897	0.5954
x1 = 0.7351	0.5903

CC(=O)OCc1ccccc1 + Cc1cccc(C)c1
viscosity [mPa·s], 101 kPa
Conditions	x1 = 0.0925	x1 = 0.1766	x1 = 0.2746	x1 = 0.3691	x1 = 0.4674	x1 = 0.5665	x1 = 0.6703	x1 = 0.7681	x1 = 0.8773	x1 = 0.9356
303.15 K	0.593	0.638	0.712	0.79	0.884	0.996	1.125	1.257	1.436	1.535
313.15 K	0.528	0.576	0.634	0.679	0.751	0.837	0.942	1.05	1.177	1.245

CC(=O)OCc1ccccc1 + Cc1cccc(O)c1
313.15 K, 101.33 kPa
Conditions	viscosity [mPa·s]
x1 = 0.115	5.114
x1 = 0.272	3.917
x1 = 0.435	3.06
x1 = 0.62	2.337
x1 = 0.81	1.765

ClC(Cl)Cl + Cc1ccccc1
298.15 K
Conditions	viscosity [mPa·s]
101 kPa, x1 = 0.1361	0.5653
101 kPa, x1 = 0.2872	0.5753
101 kPa, x1 = 0.4067	0.5833
101 kPa, x1 = 0.554	0.5861
101 kPa, x1 = 0.6211	0.584
101 kPa, x1 = 0.6656	0.58
101 kPa, x1 = 0.8806	0.5593
101.33 kPa, x1 = 0.0912	0.5573
101.33 kPa, x1 = 0.1727	0.5608
101.33 kPa, x1 = 0.2562	0.5636
101.33 kPa, x1 = 0.3481	0.5661
101.33 kPa, x1 = 0.5471	0.5687
101.33 kPa, x1 = 0.6862	0.5638
101.33 kPa, x1 = 0.8428	0.5531
101.33 kPa, x1 = 0.9237	0.545

CC(=O)OCc1ccccc1 + Cc1ccccc1C
viscosity [mPa·s], 101 kPa
Conditions	x1 = 0.0897	x1 = 0.1695	x1 = 0.2706	x1 = 0.3684	x1 = 0.4671	x1 = 0.562	x1 = 0.6623	x1 = 0.7598	x1 = 0.8617	x1 = 0.9299
303.15 K	0.751	0.802	0.873	0.957	1.047	1.142	1.252	1.361	1.478	1.563
313.15 K	0.671	0.72	0.783	0.845	0.909	0.976	1.054	1.135	1.224	1.285

O=[N+]([O-])[O-].[Na+] + N
293.15 K, 101 kPa
Conditions	viscosity [mPa·s]
x1 = 0.02	0.182
x1 = 0.039	0.225
x1 = 0.081	0.374

Cc1ccc(S(=O)(=O)[O-])cc1.O=C1CCC[NH+]1C1CCCCC1 + O
viscosity [mPa·s], 101 kPa
Conditions	x1 = 0.002718	x1 = 0.008026	x1 = 0.01073
298.15 K	1.035	–	1.485
303.15 K	–	1.165	–

NCCCC(=O)O + O
viscosity, 100 kPa
Conditions	x1 = 0.0004	x1 = 0.0007	x1 = 0.0008999	x1 = 0.001	x1 = 0.0018	x1 = 0.002695	x1 = 0.004484	x1 = 0.006266	x1 = 0.008927
298.15 K	–	–	0.905 mPa·s	–	–	0.935 mPa·s	0.963 mPa·s	0.991 mPa·s	1.03 mPa·s
308.15 K	0.723 mPa·s	0.728 mPa·s	0.732 mPa·s	0.731 mPa·s and 0.735 mPa·s	0.742 mPa·s	0.76 mPa·s	–	0.814 mPa·s	0.852 mPa·s
313.15 K	0.655 mPa·s	0.66 mPa·s	–	0.662 mPa·s and 0.666 mPa·s	0.672 mPa·s	–	–	–	–
318.15 K	0.599 mPa·s	0.603 mPa·s	0.605 mPa·s	0.605 mPa·s and 0.609 mPa·s	0.614 mPa·s	0.623 mPa·s	0.64 mPa·s	0.658 mPa·s	0.684 mPa·s

O=C(O)CCl + O
293.35 K, 101 kPa
Conditions	viscosity [mPa·s]
x1 = 0.01308	11070
x1 = 0.02204	12080
x1 = 0.02477	11950
x1 = 0.0251	11580
x1 = 0.03355	12540
x1 = 0.05294	15100

O=C(O)[C@@H]1CCCN1 + O
viscosity [mPa·s], 101 kPa
Conditions	x1 = 0.00045	x1 = 0.0009	x1 = 0.00135	x1 = 0.001798	x1 = 0.002245	x1 = 0.002695	x1 = 0.003143	x1 = 0.003588
293.15 K	1.009	1.018	1.027	1.036	1.045	1.054	1.064	1.073
298.15 K	0.8966	0.9039	0.9114	0.9192	0.9269	0.9349	0.9428	0.9507
303.15 K	0.8027	0.809	0.8154	0.8221	0.8288	0.8354	0.8421	0.8487
308.15 K	0.7236	0.7289	0.7344	0.7401	0.7456	0.7513	0.757	0.7625
313.15 K	0.6566	0.6611	0.6658	0.6705	0.6753	0.68	0.6849	0.6894
318.15 K	0.6007	0.6045	0.6085	0.6125	0.6164	0.6204	0.6244	0.6282

O=CC(Cl)(Cl)Cl + O
323.15 K, 101 kPa
Conditions	viscosity [mPa·s]
x1 = 0.05	1.031
x1 = 0.1	1.731
x1 = 0.15	2.671
x1 = 0.2	4.156
x1 = 0.25	5.987
x1 = 0.3	8.751
x1 = 0.35	11.36
x1 = 0.4	14.33
x1 = 0.425	15.57
x1 = 0.45	16.37
x1 = 0.465	17.06
x1 = 0.475	17.38
x1 = 0.49	17.26
x1 = 0.5	16.72
x1 = 0.55	14.07
x1 = 0.6	11.39
x1 = 0.7	5.695
x1 = 0.8	2.681
x1 = 0.9	1.447

OCC(F)(F)C(F)(F)F + O
viscosity [mPa·s], 100 kPa
Conditions	x1 = 0.5504	x1 = 0.6564	x1 = 0.7892	x1 = 0.8991
298.15 K	2.607	2.626	2.774	3.069
323.15 K	1.263	1.278	1.318	1.401

[I-].[Li+] + O
Conditions	viscosity [mPa·s]
293.15 K, 100 kPa, x1 = 0.005076	1.025
293.15 K, 101 kPa, x1 = 0.00701	1.029
293.15 K, 101 kPa, x1 = 0.01933	1.076
293.15 K, 101 kPa, x1 = 0.04884	1.205
293.15 K, 101 kPa, x1 = 0.06296	1.292
293.15 K, 101 kPa, x1 = 0.08324	1.429
293.15 K, 101 kPa, x1 = 0.1073	1.656
293.15 K, 101 kPa, x1 = 0.1418	2.218
303.15 K, 101 kPa, x1 = 0.0017	0.808
303.15 K, 101 kPa, x1 = 0.00416	0.813
303.15 K, 101 kPa, x1 = 0.00701	0.821
303.15 K, 101 kPa, x1 = 0.01933	0.866
303.15 K, 101 kPa, x1 = 0.02768	0.895
303.15 K, 101 kPa, x1 = 0.04884	0.977
303.15 K, 101 kPa, x1 = 0.06296	1.049
303.15 K, 101 kPa, x1 = 0.08324	1.178
303.15 K, 101 kPa, x1 = 0.1073	1.376
303.15 K, 101 kPa, x1 = 0.1418	1.819
310.15 K, 101 kPa, x1 = 0.000205	0.6972
310.15 K, 101 kPa, x1 = 0.00126	0.6998
310.15 K, 101 kPa, x1 = 0.001978	0.7017
310.15 K, 101 kPa, x1 = 0.002695	0.7035
310.15 K, 101 kPa, x1 = 0.003679	0.706
310.15 K, 101 kPa, x1 = 0.005197	0.7098
310.15 K, 101 kPa, x1 = 0.005988	0.7118
323.15 K, 101 kPa, x1 = 0.0017	0.555
323.15 K, 101 kPa, x1 = 0.00416	0.561
323.15 K, 101 kPa, x1 = 0.00701	0.567
323.15 K, 101 kPa, x1 = 0.01933	0.602
323.15 K, 101 kPa, x1 = 0.02768	0.628
323.15 K, 101 kPa, x1 = 0.04884	0.693
323.15 K, 101 kPa, x1 = 0.06296	0.752
323.15 K, 101 kPa, x1 = 0.08324	0.849
323.15 K, 101 kPa, x1 = 0.1073	1.002
323.15 K, 101 kPa, x1 = 0.1418	1.344
